Assay: Pharmacokinetic study after oral administration to rats
Assay type: in vivo, Sprague-Dawley male rats

O=C([O-])Cc1ccccc1Nc1c(Cl)cccc1Cl.[K+] [DCFP, Diclofenac potassium]
AUC(0–t) (25 mg kg^−1): 53.99 ± 3.18 mg/L/h
AUC(0–∞) (25 mg kg^−1): 59.22 ± 5.23 mg/L/h
Cmax (25 mg kg^−1): 15520 ± 1050 ng/mL
blood drug concentration (at 10 h): nearly undetectable
blood drug concentration (within 1 h): not detectable

— paper PMC9037311 (RSC Advances, 2021)
